Biological target: T1, recombinant human CCR5 receptor (Homo sapiens, UniProt P51681)
T1 construct: expressed in transfected cells; host or cells: Chinese hamster ovary (CHO) cells; membranes
Test: Radioligand binding assay for inhibition of the binding of MIP-1α
Conditions: displacement of 0.1 nM iodinated MIP-1α; membranes of Chinese hamster ovary cells expressing CCR5
Method: Biological Assay for the Ability of Compounds to Inhibit the Binding of MIP-1α This ability is assessed using an in vitro radioligand binding assay. Membranes are prepared from Chinese hamster ovary cells which express the recombinant human CCR5 receptor. These membranes are incubated with 0.1 nM iodinated MIP-1α, scintillation proximity beads and various concentrations of the compounds of the invention in 96-well plates. The amount of iodinated MIP-1α bound to the receptor is then determined by scintillation counting.

T1 sequence (P51681 whole entry): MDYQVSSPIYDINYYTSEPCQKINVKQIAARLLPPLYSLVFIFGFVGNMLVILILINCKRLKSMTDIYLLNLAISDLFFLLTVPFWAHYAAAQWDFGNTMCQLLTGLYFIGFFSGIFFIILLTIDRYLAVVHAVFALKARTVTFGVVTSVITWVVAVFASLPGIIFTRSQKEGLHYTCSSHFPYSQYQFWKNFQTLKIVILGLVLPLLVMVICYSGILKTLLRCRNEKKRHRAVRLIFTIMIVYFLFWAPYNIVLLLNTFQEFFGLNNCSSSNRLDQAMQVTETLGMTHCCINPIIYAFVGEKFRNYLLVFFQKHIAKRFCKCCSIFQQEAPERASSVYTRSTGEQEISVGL

Row | Structure (SMILES) | IC50 [µM]
1 | O=C(Nc1ccccc1)N1CCN(C[C@@H]2CCCN(CCCc3ccccc3)C2)CC1 [Example 245, N-phenyl-4-[[(3R)-1-(3-phenylpropyl)-3-piperidyl]methyl]piperazine-1-carboxamide] | < 10
2 | C[C@@H](Cc1ccc(F)cc1)N1CCO[C@@H](CN2CCN(C(=O)Nc3ccc(F)c(Cl)c3)CC2)C1 [Example 233, N-(3-chloro-4-fluorophenyl)-4-({(2S)-4-[(1S)-2-(4-fluorophenyl)-1-methylethyl]morpholin-2-yl}methyl)piperazine-1-carboxamide] | < 10
3 | CC(C)N1CCN[C@@H](C(=O)N2CCN(C(=O)Nc3cc(Cl)cc(Cl)c3)CC2)C1 [Example 287, N-(3,5-Dichlorophenyl)-4-{[(2R)-4-isopropylpiperazin-2-yl]carbonyl}piperazine-1-carboxamide] | < 10
4 | O=C(Nc1ccccc1)N1CCN(CC2CCCN(C3CC3)C2)CC1 (stereo in doubt) [Example 183, N-Phenyl-4-{[(3R)-1-(2-cyclopropyl)piperidin-3-yl]methyl}piperazine-1-carboxamide] | < 10
5 | O=C(Nc1ccc(Cl)c(Cl)c1)N1CCN(C[C@@H]2CCCN(Cc3c[nH]nc3-c3ccccc3)C2)CC1 [Example 200, N-(3,4-Dichlorophenyl)-4-({(3R)-1-[(3-phenyl-1H-pyrazol-4-yl)methyl]piperidin-3-yl}methyl)piperazine-1-carboxamide] | < 10
6 | COc1ccc(CN2CCC[C@@H](CN3CCN(C(=O)Nc4ccccc4)CC3)C2)cn1 [Example 247, 4-({(3R)-1-[(6-methoxypyridin-3-yl)methyl]piperidin-3-yl}methyl)-N-phenyl piperazine-1-carboxamide] | < 10
7 | O=C(Nc1ccc(Cl)c(Cl)c1)N1CCN(C(=O)[C@@H]2CCCN(CCc3ccccc3)C2)CC1 [Example 89, N-(3,4-dichlorophenyl)-4-{[(3R)-1-(2-phenylethyl)piperidin-3-yl]carbonyl}piperazine-1-carboxamide] | < 10
8 | C=C(C)CN1CCN[C@@H](C(=O)N2CCN(C(=O)Nc3ccc(Cl)c(Cl)c3)CC2)C1 [Example 304, N-(3,4-dichlorophenyl)-4-{[(2R)-4-(2-methylprop-2-en-1-yl)piperazin-2-yl]carbonyl}piperazine-1-carboxamide] | < 10
9 | O=C(Nc1ccc(Cl)c(Cl)c1)N1CCN(C[C@H]2CCN([C@H]3CC[C@](O)(c4cccnc4)CC3)C2)CC1 [Example 228, N-(3,4-dichlorophenyl)-4-{[(3R)-1-(cis-4-hydroxy-4-pyridin-3-ylcyclohexyl)pyrrolidin-3-yl]methyl}piperazine-1-carboxamide] | < 10
10 | CC(Cc1ccccc1)N1CCCC(CN2CCN(C(=O)Nc3ccccc3)CC2)C1 (stereo in doubt) [Example 246, 4-[[(3R)-1-(1-methyl-2-phenyl-ethyl)-3-piperidyl]methyl]-N-phenyl-piperazine-1-carboxamide] | < 10
11 | O=C(Nc1ccc(Cl)c(C(F)(F)F)c1)N1CCN(C[C@@H]2CCCN(C3CC3)C2)CC1 [Example 186, N-[4-chloro-3-(trifluoromethyl)phenyl]-4-{[(3S)-1-cyclopropylpiperidin-3-yl]methyl}piperazine-1-carboxamide] | < 10
12 | CC(C)N1CCN[C@@H](C(=O)N2CCN(C(=O)Nc3ccc(F)c(Cl)c3)CC2)C1 [Example 216] | < 10
13 | O=C(Nc1ccc(Cl)c(Cl)c1)N1CCN(C(=O)[C@H]2CN(C3CCCCC3)CCN2)CC1 [Example 277, 4-{[(2R)-4-Cyclohexylpiperazin-2-yl]carbonyl}-N-(3,4-dichlorophenyl)piperazine-1-carboxamide] | < 10
14 | O=C(Nc1ccc(Br)cc1)N1CCN(C[C@@H]2CCCN(C3CC3)C2)CC1 [Example 108, N-(4-bromophenyl)-4-{[(3S)-1-cyclopropylpiperidin-3-yl]methyl}piperazine-1-carboxamide] | < 10
15 | O=C(Nc1ccc(Cl)c(Cl)c1)N1CCN(C(=O)[C@H]2CN(C3CCSCC3)CCN2)CC1 [Example 280, N-(3,4-Dichlorophenyl)-4-{[(2R)-4-(tetrahydro-2H-thiopyran-4-yl)piperazin-2-yl]carbonyl}piperazine-1-carboxamide] | < 10
16 | O=C(Nc1ccc(Cl)c(Cl)c1)N1CCN(C[C@@H]2CCCN(CCc3ccc(Cl)cc3)C2)CC1 [Example 154, 4-({(3R)-1-[2-(4-Chlorophenyl)ethyl]piperidin-3-yl}methyl)-N-(3,4-dichlorophenyl)piperazine-1-carboxamide] | < 10
17 | O=C(Nc1ccc(Cl)c(Cl)c1)N1CCN(C(=O)[C@H]2CN(CCCc3ncc(F)cn3)CCN2)CC1 [Example 273, N-(3,4-dichlorophenyl)-4-({(2R)-4-[3-(5-fluoropyrimidin-2-yl)propyl]piperazin-2-yl}carbonyl)piperazine-1-carboxamide] | < 10
18 | CC(C)N1CCN[C@@H](C(=O)N2CCN(C(=O)Nc3ccc(Cl)c(F)c3)CC2)C1 [Example 265, N-(4-Chloro-3-fluorophenyl)-4-{[(2R)-4-isopropylpiperazin-2-yl]carbonyl}piperazine-1-carboxamide] | < 10
19 | O=C(Nc1ccccc1)N1CCN(C[C@@H]2CCCN(CCc3ccc(F)cc3)C2)CC1 [Example 248, 4-[[(3R)-1-[2-(4-fluorophenyl)ethyl]-3-piperidyl]methyl]-N-phenyl-piperazine-1-carboxamide] | < 10
20 | COc1ccc(CN2CCC[C@@H](CN3CCN(C(=O)Nc4ccc(Cl)c(Cl)c4)CC3)C2)cc1 [Example 47, N-(3,4-dichlorophenyl)-4-{[(3R)-1-(4-methoxybenzyl)piperidin-3-yl]methyl}piperazine-1-carboxamide] | < 10
21 | N#Cc1ccc(OCCN2CCC[C@@H](CN3CCN(C(=O)Nc4ccc(Cl)c(Cl)c4)CC3)C2)cc1 [Example 170, 4-({(3S)-1-[2-(4-Cyanophenoxy)ethyl]piperidin-3-yl}methyl)-N-(3,4-dichlorophenyl)piperazine-1-carboxamide] | < 10
22 | CC(C)N1CCC[C@@H](CN2CCN(C(=O)Nc3ccc(Cl)c(Cl)c3)CC2)C1 [Example 84, N-(3,4-dichlorophenyl)-4-{[(3S)-1-isopropylpiperidin-3-yl]methyl}piperazine-1-carboxamide] | < 10
23 | CC(=O)N1CCC(N2CCO[C@@H](CN3CCN(C(=O)Nc4ccc(Cl)c(Cl)c4)CC3)C2)CC1 [Example 120, 4-{[(2S)-4-(1-acetylpiperidin-4-yl)morpholin-2-yl]methyl}-N-(3,4-dichlorophenyl)piperazine-1-carboxamide] | < 10
24 | CN1CCCC(CN2CCN(C(=O)Nc3ccccc3)CC2)C1 (centres unmarked) [Example 1, 4-[(1-methylpiperidin-3-yl)methyl]-N-phenylpiperazine-1-carboxamide] | < 10
25 | CS(=O)(=O)N1CCC(N2CCC[C@@H](CN3CCN(C(=O)Nc4ccc(Cl)c(Cl)c4)CC3)C2)CC1 [Example 176, N-(3,4-Dichlorophenyl)-4-{[(3S)-1′-(methylsulfonyl)-1,4′-bipiperidin-3-yl]methyl}piperazine-1-carboxamide] | < 10
26 | Cc1nn(C)cc1CN1CCC[C@@H](CN2CCN(C(=O)Nc3ccc(Cl)c(Cl)c3)CC2)C1 [Example 197, N-(3,4-Dichlorophenyl)-4-({(3R)-1-[(1,3-dimethyl-1H-pyrazol-4-yl)methyl]piperidin-3-yl}methyl)piperazine-1-carboxamide] | < 10
